Experimental data as given in ChEMBL document CHEMBL3098061, “Design and synthesis of an aminopiperidine series of γ-secretase modulators” (Bioorg Med Chem Lett, 2014).
In brackets after ≈: the same amount, converted by molar mass.

System: Mus musculus
Assay: Reduction in amyloid beta42 production in wild type mouse hippocampus at 100 mg/kg, po
Assay type: functional
Design: scale not given: the % may be the effect or the level left
Conditions: not given

Row | Structure (SMILES) | Activity [%]
1 | COc1cc(C(=O)N[C@H]2CCCN(Cc3ccc(Br)cc3)C2)ccc1-n1cnc(C)c1 | 55

System: not listed separately
Assay: Permeability of the compound at pH 7.4 by PAMPA
Assay type: ADME
Conditions: read-out: permeability

Row | Structure (SMILES) | Papp [×10⁻⁶ cm/s]
2 | COc1cc(C(=O)N[C@H]2CCCN(Cc3ccc(Br)cc3)C2)ccc1-n1cnc(C)c1 | 50

System: Mus musculus
Assay: Reduction in amyloid beta42 production in wild type mouse plasma at 100 mg/kg, po
Assay type: functional
Design: scale not given: the % may be the effect or the level left
Conditions: not given

Row | Structure (SMILES) | Activity [%]
3 | COc1cc(C(=O)N[C@H]2CCCN(Cc3ccc(Br)cc3)C2)ccc1-n1cnc(C)c1 | 66

System: not listed separately
Assay: Modulation of gamma-secretase in rat fetus primary neurons assessed as inhibition of amyloid beta42 production after 1 to 3 days by ELISA
Conditions: not given

Row | Structure (SMILES) | IC50 [µM]
4 | COc1cc(C(=O)N[C@H]2CCCN(Cc3ccc(Br)cc3)C2)ccc1-n1cnc(C)c1 | 0.25

Species: Rattus norvegicus
Assay: Modulation of gamma-secretase in rat fetus primary neurons assessed as inhibition of amyloid beta42 production at 2.5 uM after 1 to 3 days by ELISA
Conditions: not given

Row | Structure (SMILES) | inhibition [%]
5 | COc1cc(C(=O)N[C@H]2CCCN(Cc3ccc(Br)cc3)C2)ccc1-n1cnc(C)c1 | 97
6 | COc1cc(C(=O)NC2CCCN(Cc3ccccc3)C2)ccc1-n1cnc(C)c1 (racemic) | 37
7 | COc1cc(C(=O)NC2CCCN(C(=O)NCc3ccc(Br)cc3)C2)ccc1-n1cnc(C)c1 (racemic) | 47
8 | COc1cc(C(=O)N[C@@H]2CCCN(Cc3cccc(C(F)(F)F)c3)C2)ccc1-n1cnc(C)c1 | 72
9 | COc1cc(C(=O)NC2CCCN(Cc3ccccc3C)C2)ccc1-n1cnc(C)c1 (racemic) | 62
10 | COc1cc(C(=O)N(C(C)C)C2CCCN(Cc3cccc(C(F)(F)F)c3)C2)ccc1-n1cnc(C)c1 (configuration not stated) | < 1
11 | COc1cc(C(=O)NC2CCCN(Cc3ccc(C(F)(F)F)cc3)C2)ccc1-n1cnc(C)c1 (racemic) | 90
12 | COc1cc(C(=O)N[C@@H]2CCCN(Cc3ccc(C(F)(F)F)cc3)C2)ccc1-n1cnc(C)c1 | 57
13 | COc1cc(C(=O)NC2CCCN(Cc3ccc(Br)cc3)C2)ccc1-n1cnc(C)c1 (racemic) | 93
14 | COc1cc(C(=O)NC2CCN(Cc3cccc(C(F)(F)F)c3)C2)ccc1-n1cnc(C)c1 (configuration not stated) | 31
15 | COc1cc(C(=O)N[C@H]2CCCN(C(=O)c3ccc(Br)cc3)C2)ccc1-n1cnc(C)c1 | 64
16 | COc1cc(C(=O)N[C@H]2CCCN(Cc3cccc(C(F)(F)F)c3)C2)ccc1-n1cnc(C)c1 | 82
17 | COc1cc(C(=O)NC2CC3CCC(C2)N3Cc2cccc(C(F)(F)F)c2)ccc1-n1cnc(C)c1 (configuration not stated) | 40
18 | COc1cc(C(=O)NC2CCCN(Cc3cccc(C)c3)C2)ccc1-n1cnc(C)c1 (racemic) | 54
19 | COc1cc(C(=O)N2CCCC(NCc3cccc(C(F)(F)F)c3)C2)ccc1-n1cnc(C)c1 (configuration not stated) | 17
20 | COc1cc(C(=O)NC2CCCN(C(=O)NCc3ccc(C)cc3)C2)ccc1-n1cnc(C)c1 (racemic) | 28

Row | Structure (SMILES) | inhibition [%]
21 | COc1cc(C(=O)N[C@H]2CCCN(C(=O)c3ccc(C)cc3)C2)ccc1-n1cnc(C)c1 | 55
22 | COc1cc(C(=O)N[C@@H]2CCCN(Cc3ccc(C)cc3)C2)ccc1-n1cnc(C)c1 | 36
23 | COc1cc(C(=O)N[C@H]2CCCN(Cc3ccc(C(F)(F)F)cc3)C2)ccc1-n1cnc(C)c1 | 92
24 | COc1cc(C(=O)N2CCN(Cc3cccc(C(F)(F)F)c3)CC2)ccc1-n1cnc(C)c1 | 18
25 | COc1cc(C(=O)NC2CCCN(C(=O)NCc3ccccc3)C2)ccc1-n1cnc(C)c1 (racemic) | 25
26 | COc1cc(C(=O)N[C@H]2CCCN(Cc3ccc(C)cc3)C2)ccc1-n1cnc(C)c1 | 90
27 | COc1cc(C(=O)N[C@@H]2CCCN(Cc3ccc(Br)cc3)C2)ccc1-n1cnc(C)c1 | 55
28 | COc1cc(C(=O)N2CCC(NCc3cccc(C(F)(F)F)c3)C2)ccc1-n1cnc(C)c1 (configuration not stated) | 39
29 | COc1ccc(CN2CCCC(NC(=O)c3ccc(-n4cnc(C)c4)c(OC)c3)C2)cc1 (racemic) | 45
30 | COc1cc(C(=O)N[C@H]2CCCN(C(=O)c3ccc(C(F)(F)F)cc3)C2)ccc1-n1cnc(C)c1 | 34
31 | CCN(C(=O)c1ccc(-n2cnc(C)c2)c(OC)c1)C1CCCN(Cc2cccc(C(F)(F)F)c2)C1 (configuration not stated) | < 1
32 | COc1cc(C(=O)N2CC3CC2CN3Cc2cccc(C(F)(F)F)c2)ccc1-n1cnc(C)c1 (configuration not stated) | 51
33 | COc1cc(C(=O)NC2CCN(Cc3cccc(C(F)(F)F)c3)CC2)ccc1-n1cnc(C)c1 | 78
34 | COc1cc(C(=O)NC2CCCN(Cc3ccc(C)cc3)C2)ccc1-n1cnc(C)c1 (racemic) | 82
35 | COc1cc(C(=O)N2C3CCC2CN(Cc2cccc(C(F)(F)F)c2)C3)ccc1-n1cnc(C)c1 | 19
36 | COc1cc(C(=O)N(C)C2CCCN(Cc3cccc(C(F)(F)F)c3)C2)ccc1-n1cnc(C)c1 (configuration not stated) | < 1

System: not listed separately
Assay: Aqueous solubility of the compound at pH 7.4
Assay type: physicochemical
Conditions: not given

Row | Structure (SMILES) | solubility [µg/mL]
37 | COc1cc(C(=O)N[C@H]2CCCN(Cc3ccc(Br)cc3)C2)ccc1-n1cnc(C)c1 | 8 (≈ 16.5 µM)
